Laboratory results from patent US7037644B1, “Means and methods for monitoring non-nucleoside reverse transcriptase inhibitor antiretroviral therapy and guiding therapeutic decisions in the treatment of HIV/AIDS” (ViroLogic, Inc., priority 1998, dated 2006).

Columns and labels:
[1] = tested on: RTV-268, patient 97-268 (RT M41L, D67N, M184V, L210W, T215Y, K219Q, P236L); assay: Phenotypic susceptibility assay (patient RTV); format: cell-based, HIV-1; details: patient virus RTV-268 vs reference virus
Text: The resistance test vectors containing a functional luciferase gene cassette were constructed and host cells were transfected with the resistance test vector DNA. The resistant test vectors contained patient-derived reverse transcriptase and protease sequences that were either susceptible or resistant to the antiretroviral agents, such as nucleoside reverse transcriptase inhibitors, non-nucleoside reverse transcriptase inhibitors and protease inhibitors. The resistance test vector viral particles produced by transfecting the resistance test vector DNA into host cells, either in the presence or absence of protease inhibitors, were used to infect target host cells grown either in the absence of NRTI or NNRTI or in the presence of increasing concentrations of the drug. The amount of luciferase activity produced in infected target host cells in the presence of drug was compared to the amount of luciferase produced in infected target host cells in the absence of drug. Drug resistance was measured as the amount of drug required to inhibit by 50% the luciferase activity detected in the absence of drug (inhibitory concentration 50%, IC50). The IC50 values were determined by plotting percent drug inhibition vs. log10 drug concentration.
Host cells were seeded in 10-cm-diameter dishes and were transfected several days after plating with resistance test vector plasmid DNA and the envelope expression vector. Transfections were performed using a calcium-phosphate precipitation procedure. The cell culture media containing the DNA precipitate was replaced with fresh medium, from one to 24 hours, after transfection. Cell culture media containing resistance test vector viral particles was harvested one to four days after transfection and was passed through a […] filter before being stored at […]. HIV capsid protein (p24) levels in the harvested cell culture media were determined by an EIA method as described by the manufacturer (SIAC; Frederick, Md.). Before infection, target cells (293 and 293/T) were plated in cell culture media. Control infections were performed using cell culture media from mock transfections (no DNA) or transfections containing the resistance test vector plasmid DNA without the envelope expression plasmid. One to three or more days after infection the media was removed and cell lysis buffer (Promega) was added to each well. Cell lysates were assayed for luciferase activity (FIG. 3). The inhibitory effect of the drug was determined using the following equation: % luciferase inhibition=1−(RLUluc [drug]÷RLUluc)×100 where RLUluc [drug] is the relative light unit of luciferase activity in infected cells in the presence of drug and RLUluc is the Relative Light Unit of luciferase activity in infected cells in the absence of drug. IC50 values were obtained from the sigmoidal curves that were generated from the data by plotting the percent inhibition of luciferase activity vs. the log10 drug concentration. The drug inhibition curves are shown in (FIG. 3).
A resistance test vector was constructed as described in Example 1 from a patient sample designated 97-268. This patient had been treated with AZT and 3TC (NRTIs), indinavir and saquinavir (PRIs) and delavirdine (an NNRTI) for periods varying from 1 month to 2 years. Isolation of viral RNA and RT/PCR was used to generate a patient derived segment that comprised viral sequences coding for all of PR and amino acids 1-313 of RT. The patient derived segment was inserted into a indicator gene viral vector to generate a resistance test vector designated RTV-268. RTV-268 was then tested using the phenotypic susceptibility assay to determine accurately and quantitatively the level of susceptibility to a panel of anti-retroviral drugs. This panel of anti-retroviral drugs comprised members of the classes known as NRTIs (AZT, 3TC, d4T, ddI and ddC), NNRTIs (delavirdine and nevirapine), and PRIs (indinavir, nelfinavir, ritonavir, and saquinavir). An IC50 was determined for each drug tested. […]

codon 181 mutant HIV-1 = details: cited from earlier work

Nc1ccn([C@@H]2CS[C@H](CO)O2)c(=O)n1 [3TC]
change in susceptibility [1]: significant resistance

Cc1cn([C@H]2C[C@H](N=[N+]=[N-])[C@@H](CO)O2)c(=O)[nH]c1=O [AZT]
change in susceptibility [1]: significant resistance

CCc1cc(CCc2nc3c(Cl)ccc(Cl)c3o2)c(=S)[nH]c1C [L-702,019]
change in IC between wild-type and codon 181 mutant HIV-1 (codon 181 mutant HIV-1): 3 fold

Cc1cn([C@H]2C=C[C@@H](CO)O2)c(=O)[nH]c1=O [d4T]
change in susceptibility [1]: slight shifts in susceptibility

Nc1ccn([C@H]2CC[C@@H](CO)O2)c(=O)n1 [ddC]
change in susceptibility [1]: slight shifts in susceptibility

O=c1[nH]cnc2c1ncn2[C@H]1CC[C@@H](CO)O1 [ddI]
change in susceptibility [1]: slight shifts in susceptibility
